The text below walks through data of the NIST ThermoML archive (doi:10.1021/je060179e).

Structures are written as SMILES. Numbers after ± are expanded uncertainties.

The conditions of this data set: for mass density: 101.33 kPa, Liquid.

`CCCCO` [butan-1-ol]: the surface tension liquid-gas (288.15 K) turned out to be 24.68 ± 0.29 mN/m; the surface tension liquid-gas (293.15 K) is on record as 24.21 ± 0.29 mN/m; the surface tension liquid-gas (298.15 K) amounted to 23.79 ± 0.29 mN/m; the surface tension liquid-gas (303.15 K) was found to be 23.34 ± 0.28 mN/m; the surface tension liquid-gas (308.15 K) worked out at 22.79 ± 0.28 mN/m. Also, the mass density (288.15 K) is given as 813.32 ± 0.23 kg/m3; the mass density (293.15 K) is on record as 809.56 ± 0.23 kg/m3; the mass density (298.15 K) stood at 805.72 ± 0.24 kg/m3; the mass density (303.15 K) is 801.91 ± 0.24 kg/m3; the mass density (308.15 K) turned out to be 798.07 ± 0.24 kg/m3.

On to `CCCCCCC` [heptane], for which the surface tension liquid-gas by setting is: (288.15 K) 20.81 ± 0.27 mN/m; (293.15 K) 20.27 ± 0.27 mN/m; (298.15 K) 19.68 ± 0.27 mN/m; (303.15 K) 19.19 ± 0.26 mN/m; (308.15 K) 18.93 ± 0.26 mN/m. The mass density is, setting by setting: (288.15 K) 687.98 ± 0.65 kg/m3; (293.15 K) 683.78 ± 0.65 kg/m3; (298.15 K) 679.55 ± 0.66 kg/m3; (303.15 K) 675.3 ± 0.66 kg/m3; (308.15 K) 671 ± 0.67 kg/m3.

For `CCCCCCO` [hexan-1-ol], the surface tension liquid-gas was found to be 26.08 ± 0.32 mN/m (288.15 K); 25.61 ± 0.32 mN/m (293.15 K); 25.19 ± 0.32 mN/m (298.15 K); 24.74 ± 0.32 mN/m (303.15 K); 24.19 ± 0.31 mN/m (308.15 K). The mass density (288.15 K) is listed as 822.28 ± 0.91 kg/m3; the mass density (293.15 K) came out at 818.75 ± 0.92 kg/m3; the mass density (298.15 K) turned out to be 815.23 ± 0.93 kg/m3; the mass density (303.15 K) worked out at 811.6 ± 0.94 kg/m3; the mass density (308.15 K) came to 808 ± 0.95 kg/m3.

`CCCCCCCCO` [octan-1-ol]: the surface tension liquid-gas runs as follows: (288.15 K) 27.41 ± 0.31 mN/m; (293.15 K) 26.94 ± 0.31 mN/m; (298.15 K) 26.52 ± 0.31 mN/m; (303.15 K) 26.07 ± 0.3 mN/m; (308.15 K) 25.52 ± 0.3 mN/m. The mass density reads like this: (288.15 K) 828.55 ± 0.45 kg/m3; (293.15 K) 825.11 ± 0.45 kg/m3; (298.15 K) 821.64 ± 0.46 kg/m3; (303.15 K) 818.19 ± 0.46 kg/m3; (308.15 K) 814.69 ± 0.47 kg/m3.
